“Also recorded” adds a separate entry of the source. Read-outs that look alike come from different tables or passages of the source.
What was measured:
MAO-B = molecular target: T1, MAO-B (Rattus norvegicus, UniProt P19643); experiment: biochemical; conditions: for SI (selectivity index for MAO-B): ratio of experimental IC50(MAO-A)/IC50(MAO-B)
T1 construct: employing crude rat brain mitochondrial suspension; from tissue; host or cells: brain mitochondria of adult Wistar rats
T1 sequence (P19643 1-520): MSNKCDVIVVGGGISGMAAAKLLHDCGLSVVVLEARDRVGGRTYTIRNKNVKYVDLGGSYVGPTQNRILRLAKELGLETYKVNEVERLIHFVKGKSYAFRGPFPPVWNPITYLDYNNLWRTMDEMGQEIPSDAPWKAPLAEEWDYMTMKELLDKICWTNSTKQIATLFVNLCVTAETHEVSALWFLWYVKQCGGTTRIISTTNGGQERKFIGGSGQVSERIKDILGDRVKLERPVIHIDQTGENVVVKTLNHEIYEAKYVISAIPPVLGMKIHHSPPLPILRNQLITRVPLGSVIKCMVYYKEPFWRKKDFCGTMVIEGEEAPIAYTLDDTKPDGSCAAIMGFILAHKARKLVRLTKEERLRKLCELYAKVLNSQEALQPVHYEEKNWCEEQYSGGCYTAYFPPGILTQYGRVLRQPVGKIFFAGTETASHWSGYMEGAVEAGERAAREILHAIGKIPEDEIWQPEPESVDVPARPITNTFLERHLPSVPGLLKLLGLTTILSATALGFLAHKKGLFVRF
In short: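 Wistar rat brain mitochondria (0.80 mg protein/ml working suspension) were incubated with inhibitor at five concentrations in 50 mM Tris-HCl pH 8.2, 37 °C, 30 min. Substrates were serotonin (added as 4 mM) for MAO-A and benzylamine (added as 0.1 M) for MAO-B. After HCl stop, absorbance was read at 280 nm (5-hydroxyindolacetic acid) or 250 nm (benzaldehyde), in triplicate.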

equine serum BuChE = molecular target: T2, equine serum BuChE (Equus caballus, UniProt P81908); experiment: In vitro BuChE inhibition assay (Ellman's method, equine serum BuChE); type: biochemical
T2 construct: equine serum BuChE was used as enzyme; purchased Sigma-Aldrich; host or cells: equine serum
Protocol: About 30 µl of enzyme sample (AChE) was added to 60 µl of 20 mM sodium phosphate buffer (pH 7.4) and were incubated in the presence of 30 µl of 10 mM DTNB solution with different concentrations of the test compounds. The enzyme reaction was initiated by the addition of 30 µl of 0.8 mM ACTI. The mixtures were incubated for 15 min at 25 °C. […] Control experiments were carried out without inhibitor, and blanks were run without AChE enzyme. All the assays were performed in triplicate. IC50 values were determined using the GraphPad Prism 5.0 (San Diego, CA) and the results were expressed as mean ± SEM.
The BuChE activity was assayed as per the procedure followed for AChE activity except that equine serum BuChE was used as enzyme and butyrylthiocholine iodide (BuTI) was used as substrate.
0, 15, 30 and 60 min at 25 °C in sodium phosphate buffer (20 mM, pH 7.4) and DTNB solution (10 mM). […] The reaction was further incubated at 25 °C for a further 15 min and the residual enzyme activities were measured and the bar graphs were constructed. All measurements were carried out in triplicate and are expressed as mean ± SEM.

mice = experiment: Neurotoxicity screening (rotarod test); type: in vivo; conditions: for Neurotoxicity (animals that exhibit toxicity / animals tested): 30 mg/kg i.p.; for Neurotoxicity (verdict in words): 30 mg/kg, relative to phenytoin
In short: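 Male albino mice (CF-1 or Swiss, 18–25 g) got 30 mg/kg i.p. in 0.5% methylcellulose/water or PEG 200. Motor impairment was checked on a 3.2 cm rotarod turning at 6 rpm. Neurotoxicity meant failure to stay on the rod ≥1 min in each of three trials.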

[1] = equine serum BuChE, BuTI substrate, mean ± SEM, read-out: BuChE In vitro IC50 (µM) ± SEM

T2 sequence (P81908 whole entry): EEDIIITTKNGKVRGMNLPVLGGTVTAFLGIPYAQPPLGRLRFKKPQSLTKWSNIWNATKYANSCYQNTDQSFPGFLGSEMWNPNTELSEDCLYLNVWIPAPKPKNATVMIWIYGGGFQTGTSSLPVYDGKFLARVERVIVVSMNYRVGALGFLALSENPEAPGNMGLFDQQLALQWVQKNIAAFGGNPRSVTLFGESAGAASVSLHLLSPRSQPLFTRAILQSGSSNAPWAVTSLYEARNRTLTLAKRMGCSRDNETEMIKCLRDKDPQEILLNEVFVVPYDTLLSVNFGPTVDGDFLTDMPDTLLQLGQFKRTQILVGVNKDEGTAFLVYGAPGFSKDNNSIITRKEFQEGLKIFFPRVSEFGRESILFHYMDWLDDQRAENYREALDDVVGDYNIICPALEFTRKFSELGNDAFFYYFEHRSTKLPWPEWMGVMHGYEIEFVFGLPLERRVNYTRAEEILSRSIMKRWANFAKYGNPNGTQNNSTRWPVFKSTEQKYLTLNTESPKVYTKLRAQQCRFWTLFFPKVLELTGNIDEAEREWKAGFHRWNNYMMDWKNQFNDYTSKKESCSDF

Row | SMILES | IC50 (MAO-B) [nM] | Ki (MAO-B) [nM] | Mode of MAO-B inhibition (MAO-B; Lineweaver–Burk plots, benzylamine) | SI (selectivity index for MAO-B) (MAO-B) | Reversibility of MAO-B inhibition (MAO-B; time-dependent inhibition, pre-incubation 0, 15, 30, 60 min) | IC50 (equine serum BuChE; [1]) [µM] | Neurotoxicity (animals that exhibit toxicity / animals tested) (mice; 0.5 h) | Neurotoxicity (animals that exhibit toxicity / animals tested) (mice; 1 h) | Neurotoxicity (animals that exhibit toxicity / animals tested) (mice; 2 h) | Neurotoxicity (animals that exhibit toxicity / animals tested) (mice; 4 h) | Neurotoxicity (verdict in words) (mice) | logP (physchem; octanol/water) | MAO-B: fold increase in activity relative to compound 17 (MAO-B; diaryl analogues) [fold] | IC50 (equine serum BuChE) [µM] | BuChE: fold less active relative to compound 17 (equine serum BuChE; diaryl analogues) [fold] | logP (physchem) | BuChE: fold reduction in activity compared to compound 4 (equine serum BuChE; ratio of IC50 values) [fold] | BuChE: fold reduction in activity compared to compound 5 (equine serum BuChE; ratio of IC50 values) [fold]
1 | CC(=NNC(=O)Nc1ncc([N+](=O)[O-])s1)c1ccc(Br)cc1 [Compound 4, 1-(1-(4-Bromophenyl)ethylidene)-4-(5-nitrothiazol-2-yl)semicarbazide] | 212 ± 4 | 11700 ± 580 | competitive; also recorded: competitively | 331.08 | reversible | 0.499 ± 0.003 | 0/4 | 0/4 | 0/4 | 0/4 | non-neurotoxic | 2.2 |  |  |  |  |  | 
2 | CC(=NNC(=O)Nc1ncc([N+](=O)[O-])s1)c1ccc(Cl)cc1 [Compound 5, 1-(1-(4-Chlorophenyl)ethylidene)-4-(5-nitrothiazol-2-yl)semicarbazide] | 601 ± 15 |  |  | 7921.79 |  | 0.553 ± 0.038 | 0/4 | 0/4 | 0/4 | 0/4 |  | 2.1 |  |  |  |  |  | 
3 | O=C(NN=C(c1ccc(Cl)cc1)c1ccc(Cl)cc1)Nc1ncc([N+](=O)[O-])s1 [Compound 19, 1-(Bis(4-chlorophenyl)methylene)-4-(5-nitrothiazol-2-yl)semicarbazide] | 1480 ± 63 |  |  | 34360.43 |  |  | 0/4 | 0/4 | 0/4 | 0/4 |  |  | ~19.32 | 5.72 ± 0.874 | ~238 | 3.9 |  | 
4 | O=C(NN=C1C(=O)Nc2ccc(Br)cc21)Nc1ncc([N+](=O)[O-])s1 [Compound 21, 1-(5-Bromo-2-oxoindolin-3-ylidene)-4–(5-nitrothiazol-2-yl)semicarbazide] | 734 ± 6 |  |  | 77.94 |  | 5.37 ± 0.278 | 1/4 | 0/4 | 0/4 | 0/4 | mildly neurotoxic; also recorded: slightly neurotoxic | 1.9 |  |  |  |  | ~10.75 | ~9.7
